Among the data in patent US8008291B2 (Mimetica Pty Ltd, priority 2008, dated 2011) are IC50 values, retold here.

Where only a bound is given, the exact number is not on record here.

The target in this test is T1, human MC5R (hMC5R) (Homo sapiens, UniProt P33032).
T1 construct: purchased Perkin Elmer RBXMC5M400UA
T1 sequence (P33032 whole entry): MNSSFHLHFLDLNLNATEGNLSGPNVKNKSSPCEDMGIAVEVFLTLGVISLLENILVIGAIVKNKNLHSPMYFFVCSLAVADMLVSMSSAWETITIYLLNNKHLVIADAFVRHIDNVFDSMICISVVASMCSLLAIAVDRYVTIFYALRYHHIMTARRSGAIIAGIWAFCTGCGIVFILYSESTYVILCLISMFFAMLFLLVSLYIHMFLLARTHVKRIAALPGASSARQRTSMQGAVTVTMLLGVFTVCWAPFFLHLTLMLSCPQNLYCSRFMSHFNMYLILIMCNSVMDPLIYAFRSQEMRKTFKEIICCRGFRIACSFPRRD
In words: Human MC5R radioligand binding assay (membranes, [125I] NDP-MSH displacement). Conditions: hMC5R binding; tested as trifluoroacetate or hydrochloride salts, or free bases; read-out: MC5R radioligand IC50. In short, it runs like this: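 Displacement of [125I]NDP-MSH (radioiodinated in house, HPLC-purified) from hMC5R membranes by test compound measured after 1 hr incubation at 37° C.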
With `NCC[C@@H]1N[C@H](CNC(=O)c2ccc3cc(Cl)ccc3c2)CCN(Cc2cc(Cl)cc(Cl)c2)C1=O` [Compound 466, N-(((3S,5S)-3-(2-aminoethyl)-1-(3,5-dichlorobenzyl)-2-oxo-1,4-diazepan-5-yl)methyl)-6-chloro-2-naphthamide], the concentration for half-maximal inhibition (IC50) was < 100 nM.

With `O=C(NC[C@@H]1CCN(Cc2cc(Cl)cc(Cl)c2)C(=O)[C@H](CCN2CCCCC2)N1)c1ccc2cc(Cl)ccc2c1` [Compound 467, 6-chloro-N-(((3S,5S)-1-(3,5-dichlorobenzyl)-2-oxo-3-(2-(piperidin-1-yl)ethyl)-1,4-diazepan-5-yl)methyl)-2-naphthamide], the IC50 was < 100 nM.

On to `CC[C@@H](CN1CC[C@@H](CNC(=O)c2ccc3cc(Cl)ccc3c2)N[C@@H](CCN)C1=O)C(C)C` [Compound 469, N-(((3S,5S)-3-(2-aminoethyl)-1-((R)-2-ethyl-3-methylbutyl)-2-oxo-1,4-diazepan-5-yl)methyl)-6-chloro-2-naphthamide], for which the half-maximal inhibitory concentration (IC50) is < 1000 nM.

On to `CC[C@H](CN1CC[C@@H](CNC(=O)c2ccc3cc(Cl)ccc3c2)N[C@@H](CCN)C1=O)C(C)C` [Compound 470, N-(((3S,5S)-3-(2-aminoethyl)-1-((S)-2-ethyl-3-methylbutyl)-2-oxo-1,4-diazepan-5-yl)methyl)-6-chloro-2-naphthamide], for which the 50% inhibitory concentration (IC50) was < 1000 nM.

`CC[C@@H](CN1CC[C@@H](CNC(=O)c2ccc3cc(Cl)ccc3c2)N[C@@H](CCN2CCCCC2)C1=O)C(C)C` [Compound 471, 6-chloro-N-(((3S,5S)-1-((R)-2-ethyl-3-methylbutyl)-2-oxo-3-(2-(piperidin-1-yl)ethyl)-1,4-diazepan-5-yl)methyl)-2-naphthamide]: the half-inhibitory concentration (IC50) is < 100 nM.

On to `CC[C@H](CN1CC[C@@H](CNC(=O)c2ccc3cc(Cl)ccc3c2)N[C@@H](CCN2CCCCC2)C1=O)C(C)C` [Compound 472, 6-chloro-N-(((3S,5S)-1-((S)-2-ethyl-3-methylbutyl)-2-oxo-3-(2-(piperidin-1-yl)ethyl)-1,4-diazepan-5-yl)methyl)-2-naphthamide], for which the IC50 was < 100 nM.

As for `O=C(O)c1ccc2cc(C(=O)NC[C@@H]3CCN(CC(c4ccccc4)c4ccccc4)C(=O)[C@H](CCN4CCCCC4)N3)ccc2c1` [Compound 473, 6-(((3S,5S)-1-(2,2-diphenylethyl)-2-oxo-3-(2-(piperidin-1-yl)ethyl)-1,4-diazepan-5-yl)methylcarbamoyl)-2-naphthoic acid], the half-inhibitory concentration (IC50) was < 1000 nM.

With `CC[C@H](CN1CC[C@@H](CNC(=O)c2ccc3cc(Cl)ccc3c2)N[C@@H](CCNC(=N)NC(C)C)C1=O)c1ccccc1` [Compound 474, 6-chloro-N-(((3S,5S)-3-(2-(3-isopropylguanidino)ethyl)-2-oxo-1-((S)-2-phenylbutyl)-1,4-diazepan-5-yl)methyl)-2-naphthamide], the IC50 was < 10 nM.

For the molecule `C=C(C)C(CC)CN1CC[C@@H](CNC(=O)c2ccc(Cl)c(Cl)c2)N[C@@H](CCN)C1=O` (stereo partly drawn) [Compound 475, N-(((3S,5S)-3-(2-aminoethyl)-1-(2-ethyl-3-methylbut-3-enyl)-2-oxo-1,4-diazepan-5-yl)methyl)-3,4-dichlorobenzamide], the IC50 was < 10000 nM.

For the molecule `C=C(C)C(CC)CN1CC[C@@H](CNC(=O)c2ccc(Cl)c(Cl)c2)N[C@@H](CCN2CCCCC2)C1=O` (stereo partly drawn) [Compound 476, 3,4-dichloro-N-(((3S,5S)-1-(2-ethyl-3-methylbut-3-enyl)-2-oxo-3-(2-(piperidin-1-yl)ethyl)-1,4-diazepan-5-yl)methyl)benzamide], the concentration for half-maximal inhibition (IC50) was < 1000 nM.

As for `C=C(C)C(CC)CN1CC[C@@H](CNC(=O)c2ccc3cc(Cl)ccc3c2)N[C@@H](CCN)C1=O` (stereo partly drawn) [Compound 477, N-(((3S,5S)-3-(2-aminoethyl)-1-(2-ethyl-3-methylbut-3-enyl)-2-oxo-1,4-diazepan-5-yl)methyl)-6-chloro-2-naphthamide], the IC50 is < 10 nM.

Regarding `C=C(C)[C@@H](CC)CN1CC[C@@H](CNC(=O)c2ccc3cc(Cl)ccc3c2)N[C@@H](CCN2CCCCC2)C1=O` [Compound 478, 6-chloro-N-(((3S,5S)-1-((R)-2-ethyl-3-methylbut-3-enyl)-2-oxo-3-(2-(piperidin-1-yl)ethyl)-1,4-diazepan-5-yl)methyl)-2-naphthamide], the IC50 was < 100 nM.

In the case of `C=C(C)[C@H](CC)CN1CC[C@@H](CNC(=O)c2ccc3cc(Cl)ccc3c2)N[C@@H](CCN2CCCCC2)C1=O` [Compound 479, 6-chloro-N-(((3S,5S)-1-((S)-2-ethyl-3-methylbut-3-enyl)-2-oxo-3-(2-(piperidin-1-yl)ethyl)-1,4-diazepan-5-yl)methyl)-2-naphthamide], the half-inhibitory concentration (IC50) was < 10 nM.

`N=C(N)NCCC[C@@H]1N[C@H](CNC(=O)c2ccc(-c3ccccc3)cc2)CCN(CC2CCCCC2)C1=O` [Compound 480, N-(((3S,5S)-1-(cyclohexylmethyl)-3-(3-guanidinopropyl)-2-oxo-1,4-diazepan-5-yl)methyl)biphenyl-4-carboxamide]: the IC50 was < 1000 nM.

As for `N=C(N)NCCC[C@@H]1N[C@H](CNC(=O)Cc2c[nH]c3ccccc23)CCN(CC2CCCCC2)C1=O` [Compound 481, N-(((3S,5S)-1-(cyclohexylmethyl)-3-(3-guanidinopropyl)-2-oxo-1,4-diazepan-5-yl)methyl)-2-(1 H-indol-3-yl)acetamide], the IC50 was < 100 nM.

Consider `N=C(N)NCCC[C@@H]1N[C@H](CNC(=O)c2cnc3ccccc3c2)CCN(CC2CCCCC2)C1=O` [Compound 482, N-(((3S,5S)-1-(cyclohexylmethyl)-3-(3-guanidinopropyl)-2-oxo-1,4-diazepan-5-yl)methyl)quinoline-3-carboxamide], for which the IC50 is < 1000 nM.

As to `CC[C@H](CN1CC[C@@H](CNC(=O)c2ccc(Cl)c(Cl)c2)N[C@@H](CCN2CCC(F)(F)CC2)C1=O)c1ccccc1` [Compound 483, 3,4-dichloro-N-(((3S,5S)-3-(2-(4,4-difluoropiperidin-1-yl)ethyl)-2-oxo-1-((S)-2-phenylbutyl)-1,4-diazepan-5-yl)methyl)benzamide], the half-inhibitory concentration (IC50) is < 100 nM.

With `CC[C@H](CN1CC[C@@H](CNC(=O)c2ccc(Cl)c(Cl)c2)N[C@@H](CCN2CCCC(F)(F)C2)C1=O)c1ccccc1` [Compound 484, 3,4-dichloro-N-(((3S,5S)-3-(2-(3,3-difluoropiperidin-1-yl)ethyl)-2-oxo-1-((S)-2-phenylbutyl)-1,4-diazepan-5-yl)methyl)benzamide], the half-inhibitory concentration (IC50) is < 1000 nM.

With `CC[C@H](CN1CC[C@@H](CNCc2ccc(Cl)c(Cl)c2)N[C@@H](CCN2CCCCC2)C1=O)c1ccccc1` [Compound 485, (3S,5S)-5-((3,4-dichlorobenzylamino)methyl)-1-((S)-2-phenylbutyl)-3-(2-(piperidin-1-yl)ethyl)-1,4-diazepan-2-one], the IC50 was < 100 nM.

As to `CCC(CN1CC[C@@H](CNC(=O)c2ccc(Cl)c(Cl)c2)N[C@@H](CCN2CCCCC2)C1=O)C1CC1` (stereo partly drawn) [Compound 486, 3,4-dichloro-N-(((3S,5S)-1-(2-cyclopropylbutyl)-2-oxo-3-(2-(piperidin-1-yl)ethyl)-1,4-diazepan-5-yl)methyl)benzamide], the IC50 was < 1000 nM.

For `CCC(CN1CC[C@@H](CNC(=O)c2ccc3cc(Cl)ccc3c2)N[C@@H](CCN)C1=O)C1CC1` (stereo partly drawn) [Compound 487, N-(((3S,5S)-3-(2-aminoethyl)-1-(2-cyclopropylbutyl)-2-oxo-1,4-diazepan-5-yl)methyl)-6-chloro-2-naphthamide], the IC50 is < 1000 nM.

As for `CCC(CN1CC[C@@H](CNC(=O)c2ccc3cc(Cl)ccc3c2)N[C@@H](CCN2CCCCC2)C1=O)C1CC1` (stereo partly drawn) [Compound 488, 6-chloro-N-(((3S,5S)-1-(2-cyclopropylbutyl)-2-oxo-3-(2-(piperidin-1-yl)ethyl)-1,4-diazepan-5-yl)methyl)-2-naphthamide], the IC50 is < 100 nM.

Consider `CC[C@H](CN1CC[C@@H](CNC(=O)c2ccc(Cl)c(Cl)c2)N[C@@H](CCN2C(=O)CCC2=O)C1=O)c1ccccc1` [Compound 489, 3,4-dichloro-N-(((3S,5S)-3-(2-(2,5-dioxopyrrolidin-1-yl)ethyl)-2-oxo-1-((S)-2-phenylbutyl)-1,4-diazepan-5-yl)methyl)benzamide], for which the IC50 is < 10000 nM.

With `CC[C@H](CN1CC[C@@H](CNC(=O)c2ccc3cc(Cl)ccc3c2)N[C@@H](CCCNC(N)=O)C1=O)c1ccccc1` [Compound 490, 6-chloro-N-(((3S,5S)-2-oxo-1-((S)-2-phenylbutyl)-3-(3-ureidopropyl)-1,4-diazepan-5-yl)methyl)-2-naphthamide], the half-inhibitory concentration (IC50) was < 1000 nM.

For `CC[C@H](CN1CC[C@@H](CNC(=O)c2ccc(Cl)c(Cl)c2)N[C@@H](CCNC(C)C(F)(F)F)C1=O)c1ccccc1` (stereo partly drawn) [Compound 491, 3,4-dichloro-N-(((3S,5S)-2-oxo-1-((S)-2-phenylbutyl)-3-(2-(1,1,1-trifluoropropan-2-ylamino)ethyl)-1,4-diazepan-5-yl)methyl)benzamide], the IC50 is < 1000 nM.

As to `CC[C@H](CN1CC[C@@H](CNC(=O)c2ccc(Cl)c(Cl)c2)N[C@@H](CCN2C(=O)CC(C)(C)C2=O)C1=O)c1ccccc1` [Compound 492, 3,4-dichloro-N-(((3S,5S)-3-(2-(3,3-dimethyl-2,5-dioxopyrrolidin-1-yl)ethyl)-2-oxo-1-((S)-2-phenylbutyl)-1,4-diazepan-5-yl)methyl)benzamide], the IC50 was < 10000 nM.

Regarding `CC[C@H](CN1CC[C@@H](CNC(=O)c2ccc3cc(Cl)ccc3c2)N[C@@H](CCN2CCCCCC2)C1=O)c1ccccc1` [Compound 493, N-(((3S,5S)-3-(2-(azepan-1-yl)ethyl)-2-oxo-1-((S)-2-phenylbutyl)-1,4-diazepan-5-yl)methyl)-6-chloro-2-naphthamide], the IC50 is < 100 nM.

As for `CC[C@H](CN1CC[C@@H](CNC(=O)c2ccc3cc(Cl)ccc3c2)N[C@@H](CCNC(=O)NC(C)C)C1=O)c1ccccc1` [Compound 494, 6-chloro-N-(((3S,5S)-3-(2-(3-isopropylureido)ethyl)-2-oxo-1-((S)-2-phenylbutyl)-1,4-diazepan-5-yl)methyl)-2-naphthamide], the IC50 was < 1000 nM.

Usually IC50 stands for the concentration needed to halve the response being measured.
